Assay results from ChEMBL document CHEMBL3885881, “DrugMatrix”.

Species: Rattus norvegicus
Assay: DrugMatrix - Regimen: Daily Repeat
Assay type: toxicity, organism-based, Sprague-Dawley
Parameters: regimen Daily Repeat, gender Male, age 6-8 weeks
Conditions: in vivo, po, route oral GAVAGE, vehicle .5 % CMC; for ABSOLUTE BASOPHIL / ABSOLUTE EOSINOPHIL / ABSOLUTE LYMPHOCYTE / ABSOLUTE MONOCYTE / ABSOLUTE SEGMENTED NEUTROPHIL / BASOPHIL / EOSINOPHIL / ERYTHROCYTE COUNT / HEMATOCRIT / HEMOGLOBIN / LEUKOCYTE COUNT / LYMPHOCYTE / MEAN CORPUSCULAR HEMOGLOBIN / MEAN CORPUSCULAR HEMOGLOBIN CONCENTRATION / MEAN CORPUSCULAR VOLUME / MONOCYTE / NEUTROPHIL / NUCLEATED RED BLOOD CELLS / PLATELET COUNT: tissue Blood; for ALANINE AMINOTRANSFERASE / ALBUMIN / ALKALINE PHOSPHATASE / ASPARTATE AMINOTRANSFERASE / BLOOD UREA NITROGEN / CARBON DIOXIDE / CHLORIDE / CHOLESTEROL / CREATINE PHOSPHOKINASE / CREATININE / GLUCOSE / LACTATE DEHYDROGENASE / LIPASE / PHOSPHORUS / POTASSIUM / SODIUM / TOTAL BILIRUBIN / TOTAL PROTEIN / URIC ACID: tissue Plasma
[1] = 0 mg/kg, 72 h, dose level Control, time 3 day
[2] = 0 mg/kg, 120 h, dose level Control, time 5 day
[3] = 150 mg/kg, 72 h, dose level Low, time 3 day

With `C[C@@H](O)[C@H]1C(=O)N2C(C(=O)O)=C(S[C@@H]3CN[C@H](C(=O)N(C)C)C3)[C@H](C)[C@H]12` [MEROPENEM] the “ABSOLUTE BASOPHIL” value [1] was 0 CELLS/uL, the “ABSOLUTE EOSINOPHIL” value [1] was 222.83 CELLS/uL and the “ABSOLUTE LYMPHOCYTE” value [1] was 14453 CELLS/uL. For the same compound, the “ABSOLUTE MONOCYTE” value [1] was 0 CELLS/uL, the “ABSOLUTE SEGMENTED NEUTROPHIL” value [1] was 1490.83 CELLS/uL and the BASOPHIL [1] was 0%. For the same compound, the EOSINOPHIL [1] was 1.33%, the “ERYTHROCYTE COUNT” value [1] was 5.76 x10E6/uL and the HEMATOCRIT [1] was 36.52%. The HEMOGLOBIN [1] was 13.45 G/DL, the “LEUKOCYTE COUNT” value [1] was 16.17 x10E3/uL and the LYMPHOCYTE [1] was 89.33%. The “MEAN CORPUSCULAR HEMOGLOBIN” value [1] was 23.37 pg, the “MEAN CORPUSCULAR HEMOGLOBIN CONCENTRATION” value [1] was 36.85 G/DL and the “MEAN CORPUSCULAR VOLUME” value [1] was 63.47 fL. The MONOCYTE [1] was 0%, the NEUTROPHIL [1] was 9.33% and the “NUCLEATED RED BLOOD CELLS” value [1] was 0 /100WBC. For the same compound, the “PLATELET COUNT” value [1] was 1239.5 x10E3/uL, the “ALANINE AMINOTRANSFERASE” value [1] was 43.83 u/L and the ALBUMIN [1] was 4.27 G/DL. For the same compound, the “ALKALINE PHOSPHATASE” value [1] was 398.83 u/L, the “ASPARTATE AMINOTRANSFERASE” value [1] was 81.17 u/L and the “BLOOD UREA NITROGEN” value [1] was 17.67 mg/dL. The “CARBON DIOXIDE” value [1] was 27.5 mmol/L, the CHLORIDE [1] was 99.17 MEQ/L and the CHOLESTEROL [1] was 74 mg/dL. For the same compound, the “CREATINE PHOSPHOKINASE” value [1] was 331.5 u/L, the CREATININE [1] was 0.2 mg/dL and the GLUCOSE [1] was 171.33 mg/dL. For the same compound, the “LACTATE DEHYDROGENASE” value [1] was 241.67 u/L, the LIPASE [1] was 9.5 u/L and the PHOSPHORUS [1] was 12.25 mg/dL. The POTASSIUM [1] was 6.33 MEQ/L, the SODIUM [1] was 141.28 MEQ/L and the “TOTAL BILIRUBIN” value [1] was 0.15 mg/dL. For the same compound, the “TOTAL PROTEIN” value [1] was 5.98 G/DL, the “URIC ACID” value [1] was 1.63 mg/dL and the “ABSOLUTE BASOPHIL” value [2] was 0 CELLS/uL. The “ABSOLUTE EOSINOPHIL” value [2] was 148.67 CELLS/uL, the “ABSOLUTE LYMPHOCYTE” value [2] was 16020.5 CELLS/uL and the “ABSOLUTE MONOCYTE” value [2] was 29.17 CELLS/uL. The “ABSOLUTE SEGMENTED NEUTROPHIL” value [2] was 1468.33 CELLS/uL, the BASOPHIL [2] was 0% and the EOSINOPHIL [2] was 1%. The “ERYTHROCYTE COUNT” value [2] was 5.78 x10E6/uL, the HEMATOCRIT [2] was 35.77% and the HEMOGLOBIN [2] was 13.4 G/DL. The “LEUKOCYTE COUNT” value [2] was 17.67 x10E3/uL, the LYMPHOCYTE [2] was 90.5% and the “MEAN CORPUSCULAR HEMOGLOBIN” value [2] was 23.22 pg. The “MEAN CORPUSCULAR HEMOGLOBIN CONCENTRATION” value [2] was 37.47 G/DL, the “MEAN CORPUSCULAR VOLUME” value [2] was 61.92 fL and the MONOCYTE [2] was 0.17%. The NEUTROPHIL [2] was 8.33%, the “NUCLEATED RED BLOOD CELLS” value [2] was 0.17 /100WBC and the “PLATELET COUNT” value [2] was 1255.5 x10E3/uL. For the same compound, the “ALANINE AMINOTRANSFERASE” value [2] was 46.5 u/L, the ALBUMIN [2] was 4.38 G/DL and the “ALKALINE PHOSPHATASE” value [2] was 336 u/L. The “ASPARTATE AMINOTRANSFERASE” value [2] was 76.5 u/L, the “BLOOD UREA NITROGEN” value [2] was 20 mg/dL and the “CARBON DIOXIDE” value [2] was 27.5 mmol/L. For the same compound, the CHLORIDE [2] was 101 MEQ/L, the CHOLESTEROL [2] was 71.33 mg/dL and the “CREATINE PHOSPHOKINASE” value [2] was 231.83 u/L. For the same compound, the CREATININE [2] was 0.37 mg/dL, the GLUCOSE [2] was 168.83 mg/dL and the “LACTATE DEHYDROGENASE” value [2] was 174 u/L. It also gave an LIPASE [2] of 8.67 u/L, a PHOSPHORUS [2] of 11.48 mg/dL and a POTASSIUM [2] of 6.82 MEQ/L. For the same compound, the SODIUM [2] was 143.8 MEQ/L, the “TOTAL BILIRUBIN” value [2] was 0.2 mg/dL and the “TOTAL PROTEIN” value [2] was 5.98 G/DL. For the same compound, the “URIC ACID” value [2] was 1.83 mg/dL, the “ABSOLUTE BASOPHIL” value [3] was 0 CELLS/uL and the “ABSOLUTE EOSINOPHIL” value [3] was 455.67 CELLS/uL. For the same compound, the “ABSOLUTE LYMPHOCYTE” value [3] was 14286.67 CELLS/uL, the “ABSOLUTE MONOCYTE” value [3] was 45.33 CELLS/uL and the “ABSOLUTE SEGMENTED NEUTROPHIL” value [3] was 1912.33 CELLS/uL. For the same compound, the BASOPHIL [3] was 0%, the EOSINOPHIL [3] was 2.67% and the “ERYTHROCYTE COUNT” value [3] was 5.53 x10E6/uL. For the same compound, the HEMATOCRIT [3] was 35.53%, the HEMOGLOBIN [3] was 13.27 G/DL and the “LEUKOCYTE COUNT” value [3] was 16.7 x10E3/uL. The LYMPHOCYTE [3] was 85.67%, the “MEAN CORPUSCULAR HEMOGLOBIN” value [3] was 24.03 pg and the “MEAN CORPUSCULAR HEMOGLOBIN CONCENTRATION” value [3] was 37.37 G/DL. The “MEAN CORPUSCULAR VOLUME” value [3] was 64.3 fL, the MONOCYTE [3] was 0.33% and the NEUTROPHIL [3] was 11.33%. The “NUCLEATED RED BLOOD CELLS” value [3] was 0 /100WBC, the “PLATELET COUNT” value [3] was 1310.33 x10E3/uL and the “ALANINE AMINOTRANSFERASE” value [3] was 52.67 u/L. For the same compound, the ALBUMIN [3] was 4.33 G/DL, the “ALKALINE PHOSPHATASE” value [3] was 370.33 u/L and the “ASPARTATE AMINOTRANSFERASE” value [3] was 85.67 u/L. The “BLOOD UREA NITROGEN” value [3] was 16.33 mg/dL, the “CARBON DIOXIDE” value [3] was 27 mmol/L and the CHLORIDE [3] was 101.33 MEQ/L. The CHOLESTEROL [3] was 78.33 mg/dL, the “CREATINE PHOSPHOKINASE” value [3] was 300.67 u/L and the CREATININE [3] was 0.22 mg/dL. For the same compound, the GLUCOSE [3] was 154.33 mg/dL, the “LACTATE DEHYDROGENASE” value [3] was 406.33 u/L and the LIPASE [3] was 9 u/L. For the same compound, the PHOSPHORUS [3] was 11.9 mg/dL, the POTASSIUM [3] was 6.59 MEQ/L and the SODIUM [3] was 143 MEQ/L. For the same compound, the “TOTAL BILIRUBIN” value [3] was 0.2 mg/dL, the “TOTAL PROTEIN” value [3] was 6.03 G/DL and the “URIC ACID” value [3] was 2 mg/dL.
